Assay results: ChEMBL document CHEMBL1152560, “Substituted 2-arylbenzothiazoles as kinase inhibitors: hit-to-lead optimization” (Bioorg Med Chem, 2009)

Tests used:
[1] = test system: Epidermal growth factor receptor (Homo sapiens), P00533 [T790M]; assay: Residual activity of EGFR T790M mutant at 10 uM by microplate scintillation counting
[2] = molecular target: Fibroblast growth factor receptor 1 (Homo sapiens) (UniProt P11362); assay: Residual activity of wild type FGF-R1 at 1 uM by microplate scintillation counting
[3] = molecular target: T1, cGMP-dependent protein kinase 1 (Homo sapiens) (UniProt Q13976); assay: Residual activity of PRKG1 at 10 uM by microplate scintillation counting
T1 sequence (whole entry): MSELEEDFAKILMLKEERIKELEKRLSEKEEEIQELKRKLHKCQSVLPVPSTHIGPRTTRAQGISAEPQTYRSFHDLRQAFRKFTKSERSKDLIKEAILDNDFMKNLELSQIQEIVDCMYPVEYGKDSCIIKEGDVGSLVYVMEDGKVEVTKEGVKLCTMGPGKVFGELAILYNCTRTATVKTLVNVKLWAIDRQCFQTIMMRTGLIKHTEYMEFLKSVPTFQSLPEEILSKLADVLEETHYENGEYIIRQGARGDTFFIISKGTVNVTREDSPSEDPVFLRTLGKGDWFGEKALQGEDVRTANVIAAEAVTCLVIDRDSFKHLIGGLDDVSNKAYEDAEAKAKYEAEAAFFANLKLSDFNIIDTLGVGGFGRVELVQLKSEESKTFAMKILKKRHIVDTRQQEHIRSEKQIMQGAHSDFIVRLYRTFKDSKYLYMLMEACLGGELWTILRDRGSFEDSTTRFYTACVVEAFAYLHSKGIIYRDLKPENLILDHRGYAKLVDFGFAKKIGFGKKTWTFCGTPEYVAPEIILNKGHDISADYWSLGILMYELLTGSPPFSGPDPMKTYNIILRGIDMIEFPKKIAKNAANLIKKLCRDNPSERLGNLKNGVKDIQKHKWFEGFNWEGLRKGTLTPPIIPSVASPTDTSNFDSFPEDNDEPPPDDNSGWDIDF

[4] = molecular target: Cyclin-dependent kinase 16 (Homo sapiens) (UniProt Q00536); assay: Residual activity of PCTAIRE1 at 1 uM by microplate scintillation counting
[5] = test system: Epidermal growth factor receptor (Homo sapiens), P00533 [L858R,T790M]; assay: Residual activity of EGFR T790M/L858R at 1 uM by microplate scintillation counting
[6] = molecular target: SRSF protein kinase 2 (Homo sapiens) (UniProt P78362); assay: Residual activity of SRPK2 at 10 uM by microplate scintillation counting
[7] = molecular target: Receptor-type tyrosine-protein kinase FLT3 (Homo sapiens) (UniProt P36888); assay: Residual activity of wild type FLT3 at 1 uM by microplate scintillation counting
[8] = molecular target: T2, Discoidin domain-containing receptor 2 (Homo sapiens) (UniProt Q16832); assay: Residual activity of DDR2 at 1 uM by microplate scintillation counting
T2 sequence (whole entry): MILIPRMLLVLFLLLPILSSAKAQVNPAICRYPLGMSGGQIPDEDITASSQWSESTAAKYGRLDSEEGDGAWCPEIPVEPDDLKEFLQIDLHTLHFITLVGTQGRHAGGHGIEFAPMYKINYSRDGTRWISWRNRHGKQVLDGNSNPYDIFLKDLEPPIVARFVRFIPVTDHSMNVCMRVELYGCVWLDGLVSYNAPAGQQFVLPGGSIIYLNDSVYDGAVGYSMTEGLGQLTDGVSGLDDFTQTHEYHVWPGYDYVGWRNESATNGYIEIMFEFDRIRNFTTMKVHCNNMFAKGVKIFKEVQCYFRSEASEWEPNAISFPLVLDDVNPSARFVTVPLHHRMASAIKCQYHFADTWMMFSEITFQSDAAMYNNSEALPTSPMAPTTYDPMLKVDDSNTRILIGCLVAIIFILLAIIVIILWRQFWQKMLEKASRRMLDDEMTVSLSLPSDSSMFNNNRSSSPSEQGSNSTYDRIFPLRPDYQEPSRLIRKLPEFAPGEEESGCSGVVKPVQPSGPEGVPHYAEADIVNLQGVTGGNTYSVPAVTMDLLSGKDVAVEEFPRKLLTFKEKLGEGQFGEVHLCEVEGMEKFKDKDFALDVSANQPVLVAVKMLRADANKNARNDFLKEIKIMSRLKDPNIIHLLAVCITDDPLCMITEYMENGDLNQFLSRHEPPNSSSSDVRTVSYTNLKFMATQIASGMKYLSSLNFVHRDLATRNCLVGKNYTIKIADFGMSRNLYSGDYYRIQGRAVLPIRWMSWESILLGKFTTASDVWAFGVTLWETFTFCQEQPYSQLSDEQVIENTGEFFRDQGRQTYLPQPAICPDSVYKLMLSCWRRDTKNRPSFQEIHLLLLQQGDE

[9] = molecular target: Serine/threonine-protein kinase WNK2 (Homo sapiens) (UniProt Q9Y3S1); assay: Residual activity of WNK2 at 0.1 uM by microplate scintillation counting
[10] = molecular target: Mitogen-activated protein kinase 8 (Homo sapiens) (UniProt P45983); assay: Residual activity of JNK1 at 10 uM by microplate scintillation counting
[11] = molecular target: Calcium/calmodulin-dependent protein kinase type II subunit delta (Homo sapiens) (UniProt Q13557); assay: Residual activity of CAMK2D at 0.1 uM by microplate scintillation counting
[12] = molecular target: Cyclin-dependent kinase 2/cyclin A (Homo sapiens) (UniProt P24941+P20248+P78396); assay: Residual activity of CDK2/Cyclin A at 1 uM by microplate scintillation counting; format: protein-complex assay
[13] = test system: RAF proto-oncogene serine/threonine-protein kinase (Homo sapiens), P04049 [Y340D,Y341D]; assay: Residual activity of RAF1 Y340D/Y341D mutant at 1 uM by microplate scintillation counting
[14] = molecular target: Calcium/calmodulin-dependent protein kinase type 1D (Homo sapiens) (UniProt Q8IU85); assay: Residual activity of CAMK1D at 10 uM by microplate scintillation counting
[15] = molecular target: Vascular endothelial growth factor receptor 2 (Homo sapiens, UniProt P35968); assay: Inhibition of VEGFR2 by microplate scintillation counting
[16] = molecular target: Serine/threonine-protein kinase WNK3 (Homo sapiens) (UniProt Q9BYP7); assay: Residual activity of WNK3 at 1 uM by microplate scintillation counting
[17] = molecular target: Tyrosine-protein kinase CSK (Homo sapiens) (UniProt P41240); assay: Residual activity of CSK at 1 uM by microplate scintillation counting
[18] = molecular target: Serine/threonine-protein kinase 26 (Homo sapiens) (UniProt Q9P289); assay: Residual activity of MST4 at 1 uM by microplate scintillation counting
[19] = molecular target: Ribosomal protein S6 kinase alpha-3 (Homo sapiens) (UniProt P51812); assay: Residual activity of RPS6KA3 at 1 uM by microplate scintillation counting
[20] = molecular target: Ephrin type-A receptor 4 (Homo sapiens) (UniProt P54764); assay: Residual activity of EPHA4 at 10 uM by microplate scintillation counting
[21] = molecular target: Mitogen-activated protein kinase kinase kinase 8 (Homo sapiens) (UniProt P41279); assay: Residual activity of COT at 10 uM by microplate scintillation counting

Sequence of Vascular endothelial growth factor receptor 2 (P35968 whole entry): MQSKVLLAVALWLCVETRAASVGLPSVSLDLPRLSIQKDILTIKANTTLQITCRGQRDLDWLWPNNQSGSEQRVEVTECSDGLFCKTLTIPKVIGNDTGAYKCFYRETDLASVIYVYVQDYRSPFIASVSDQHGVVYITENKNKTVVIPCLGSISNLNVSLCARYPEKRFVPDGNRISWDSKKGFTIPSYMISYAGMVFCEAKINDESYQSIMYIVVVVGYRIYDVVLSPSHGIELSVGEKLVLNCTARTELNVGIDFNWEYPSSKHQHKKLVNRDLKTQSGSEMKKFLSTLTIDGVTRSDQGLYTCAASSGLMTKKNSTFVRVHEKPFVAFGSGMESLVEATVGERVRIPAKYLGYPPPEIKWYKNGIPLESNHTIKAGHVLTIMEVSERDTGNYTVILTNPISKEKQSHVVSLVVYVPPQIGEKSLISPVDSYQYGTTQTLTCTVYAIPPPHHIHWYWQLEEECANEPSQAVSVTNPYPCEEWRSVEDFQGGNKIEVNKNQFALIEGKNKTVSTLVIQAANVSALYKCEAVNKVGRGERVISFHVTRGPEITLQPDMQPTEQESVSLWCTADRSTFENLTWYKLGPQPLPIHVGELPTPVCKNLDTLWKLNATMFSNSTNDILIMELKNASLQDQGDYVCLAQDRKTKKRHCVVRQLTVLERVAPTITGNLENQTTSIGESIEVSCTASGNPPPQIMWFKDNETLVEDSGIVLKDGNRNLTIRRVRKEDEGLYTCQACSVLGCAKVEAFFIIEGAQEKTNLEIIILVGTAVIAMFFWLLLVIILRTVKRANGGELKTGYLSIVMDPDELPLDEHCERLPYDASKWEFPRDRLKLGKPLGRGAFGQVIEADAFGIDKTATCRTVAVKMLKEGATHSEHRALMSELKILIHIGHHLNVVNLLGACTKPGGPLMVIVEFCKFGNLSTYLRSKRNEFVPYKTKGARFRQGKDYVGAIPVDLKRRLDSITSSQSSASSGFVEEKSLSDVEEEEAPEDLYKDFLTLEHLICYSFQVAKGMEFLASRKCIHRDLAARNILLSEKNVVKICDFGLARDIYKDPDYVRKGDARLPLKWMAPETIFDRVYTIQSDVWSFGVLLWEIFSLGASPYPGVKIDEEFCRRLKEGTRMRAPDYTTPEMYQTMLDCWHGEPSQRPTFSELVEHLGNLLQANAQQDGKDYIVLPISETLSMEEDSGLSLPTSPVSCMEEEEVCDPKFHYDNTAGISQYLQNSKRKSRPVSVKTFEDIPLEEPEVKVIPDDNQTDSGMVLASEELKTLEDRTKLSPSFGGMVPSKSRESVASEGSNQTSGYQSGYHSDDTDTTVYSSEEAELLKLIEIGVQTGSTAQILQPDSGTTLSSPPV
Sequence of Calcium/calmodulin-dependent protein kinase type 1D (Homo sapiens) (Q8IU85 whole entry, looked up): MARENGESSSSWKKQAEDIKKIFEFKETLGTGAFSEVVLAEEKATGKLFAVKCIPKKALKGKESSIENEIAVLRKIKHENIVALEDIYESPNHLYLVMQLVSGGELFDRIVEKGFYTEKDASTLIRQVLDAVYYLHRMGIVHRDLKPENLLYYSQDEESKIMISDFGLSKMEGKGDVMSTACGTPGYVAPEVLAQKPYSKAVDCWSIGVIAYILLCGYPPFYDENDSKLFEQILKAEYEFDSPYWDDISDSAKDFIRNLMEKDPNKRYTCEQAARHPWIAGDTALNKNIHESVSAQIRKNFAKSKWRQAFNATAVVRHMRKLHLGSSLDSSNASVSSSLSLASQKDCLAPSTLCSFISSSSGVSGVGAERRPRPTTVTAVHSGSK
Sequence of Fibroblast growth factor receptor 1 (Homo sapiens) (P11362 22-822 limits assumed): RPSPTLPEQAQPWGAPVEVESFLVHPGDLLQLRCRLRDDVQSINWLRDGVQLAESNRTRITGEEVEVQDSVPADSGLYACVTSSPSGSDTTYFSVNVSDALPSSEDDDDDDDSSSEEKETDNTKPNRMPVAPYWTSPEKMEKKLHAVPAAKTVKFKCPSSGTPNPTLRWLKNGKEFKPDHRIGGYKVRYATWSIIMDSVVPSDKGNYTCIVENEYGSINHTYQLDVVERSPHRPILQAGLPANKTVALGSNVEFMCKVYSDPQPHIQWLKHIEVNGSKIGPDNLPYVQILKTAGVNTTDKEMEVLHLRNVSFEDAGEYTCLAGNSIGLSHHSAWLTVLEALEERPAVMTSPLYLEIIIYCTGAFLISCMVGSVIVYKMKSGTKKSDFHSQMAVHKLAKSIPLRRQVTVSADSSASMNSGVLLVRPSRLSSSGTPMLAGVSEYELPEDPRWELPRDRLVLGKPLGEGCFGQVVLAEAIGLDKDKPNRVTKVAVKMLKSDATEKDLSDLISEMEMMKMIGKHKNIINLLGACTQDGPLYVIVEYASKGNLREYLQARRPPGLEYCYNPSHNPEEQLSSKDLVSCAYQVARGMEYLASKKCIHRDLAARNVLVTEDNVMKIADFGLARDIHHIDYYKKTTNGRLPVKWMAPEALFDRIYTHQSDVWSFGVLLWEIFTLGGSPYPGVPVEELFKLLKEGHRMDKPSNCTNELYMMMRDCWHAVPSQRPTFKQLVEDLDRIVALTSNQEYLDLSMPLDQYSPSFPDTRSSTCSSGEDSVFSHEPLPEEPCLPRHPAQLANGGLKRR
Sequence of Serine/threonine-protein kinase WNK2 (Homo sapiens) (Q9Y3S1 whole entry): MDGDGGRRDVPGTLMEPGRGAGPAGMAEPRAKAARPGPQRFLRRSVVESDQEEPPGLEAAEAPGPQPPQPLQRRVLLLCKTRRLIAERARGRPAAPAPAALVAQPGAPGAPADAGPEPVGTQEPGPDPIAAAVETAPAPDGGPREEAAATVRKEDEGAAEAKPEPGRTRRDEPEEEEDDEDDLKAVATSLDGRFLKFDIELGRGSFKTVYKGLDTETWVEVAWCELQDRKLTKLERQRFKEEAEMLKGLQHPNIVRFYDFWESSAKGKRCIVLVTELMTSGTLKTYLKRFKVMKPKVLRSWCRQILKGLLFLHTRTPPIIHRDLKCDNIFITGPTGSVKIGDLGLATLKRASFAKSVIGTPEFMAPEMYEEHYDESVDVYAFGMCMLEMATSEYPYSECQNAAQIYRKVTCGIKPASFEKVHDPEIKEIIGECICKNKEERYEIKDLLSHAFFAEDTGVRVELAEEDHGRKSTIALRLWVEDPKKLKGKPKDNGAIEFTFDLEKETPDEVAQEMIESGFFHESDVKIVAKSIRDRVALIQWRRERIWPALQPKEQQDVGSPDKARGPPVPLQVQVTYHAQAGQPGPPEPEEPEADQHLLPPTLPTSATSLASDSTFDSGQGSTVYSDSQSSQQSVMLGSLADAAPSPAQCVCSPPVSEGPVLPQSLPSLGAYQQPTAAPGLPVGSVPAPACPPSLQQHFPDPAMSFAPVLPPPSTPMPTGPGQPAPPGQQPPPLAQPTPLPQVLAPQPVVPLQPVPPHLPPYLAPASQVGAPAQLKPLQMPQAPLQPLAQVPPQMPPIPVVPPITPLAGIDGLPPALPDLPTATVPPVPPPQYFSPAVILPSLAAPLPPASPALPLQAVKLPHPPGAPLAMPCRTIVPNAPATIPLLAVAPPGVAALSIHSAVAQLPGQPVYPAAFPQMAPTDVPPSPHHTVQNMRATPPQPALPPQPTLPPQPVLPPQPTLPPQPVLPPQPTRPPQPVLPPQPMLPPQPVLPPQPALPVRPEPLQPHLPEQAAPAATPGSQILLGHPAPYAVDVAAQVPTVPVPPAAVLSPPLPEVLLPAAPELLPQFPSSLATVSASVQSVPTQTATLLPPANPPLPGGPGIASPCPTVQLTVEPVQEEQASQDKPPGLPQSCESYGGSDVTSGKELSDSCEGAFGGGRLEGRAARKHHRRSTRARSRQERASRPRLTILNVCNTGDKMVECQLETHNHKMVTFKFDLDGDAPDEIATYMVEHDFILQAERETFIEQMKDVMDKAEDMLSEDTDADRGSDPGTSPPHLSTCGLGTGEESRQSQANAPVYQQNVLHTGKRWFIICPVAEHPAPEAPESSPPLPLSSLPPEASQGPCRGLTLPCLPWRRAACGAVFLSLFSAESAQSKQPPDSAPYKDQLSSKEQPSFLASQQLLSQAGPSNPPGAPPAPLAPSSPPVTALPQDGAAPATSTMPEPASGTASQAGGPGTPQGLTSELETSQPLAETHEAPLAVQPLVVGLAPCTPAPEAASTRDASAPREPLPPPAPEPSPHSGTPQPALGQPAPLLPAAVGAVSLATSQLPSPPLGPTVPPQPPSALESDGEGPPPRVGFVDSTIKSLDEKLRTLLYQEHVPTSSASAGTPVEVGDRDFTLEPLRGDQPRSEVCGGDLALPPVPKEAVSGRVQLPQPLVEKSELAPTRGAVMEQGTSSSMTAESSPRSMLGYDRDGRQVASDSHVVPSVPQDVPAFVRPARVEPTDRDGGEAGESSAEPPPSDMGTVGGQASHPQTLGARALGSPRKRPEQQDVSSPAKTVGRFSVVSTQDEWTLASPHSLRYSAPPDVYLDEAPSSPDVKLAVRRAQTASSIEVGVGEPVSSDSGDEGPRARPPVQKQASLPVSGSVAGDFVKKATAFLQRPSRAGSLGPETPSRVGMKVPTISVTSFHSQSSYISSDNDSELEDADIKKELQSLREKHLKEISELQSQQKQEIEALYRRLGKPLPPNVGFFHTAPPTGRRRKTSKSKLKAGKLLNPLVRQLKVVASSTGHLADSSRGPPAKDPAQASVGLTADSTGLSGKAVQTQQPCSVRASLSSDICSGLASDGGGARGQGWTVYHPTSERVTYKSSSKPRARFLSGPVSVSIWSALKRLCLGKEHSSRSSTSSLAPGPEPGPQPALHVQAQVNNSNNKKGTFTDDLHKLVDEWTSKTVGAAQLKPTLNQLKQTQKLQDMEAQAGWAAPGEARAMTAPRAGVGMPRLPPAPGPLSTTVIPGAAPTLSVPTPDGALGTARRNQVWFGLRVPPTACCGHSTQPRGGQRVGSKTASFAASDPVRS

Row | SMILES | residual activity [1] [%] | residual activity [2] [%] | residual activity [3] [%] | residual activity [4] [%] | residual activity [5] [%] | residual activity [6] [%] | residual activity [7] [%] | residual activity [8] [%] | residual activity [9] [%] | residual activity [10] [%] | residual activity [11] [%] | residual activity [12] [%] | residual activity [13] [%] | residual activity [14] [%] | IC50 [15] [nM] | residual activity [16] [%] | residual activity [17] [%] | residual activity [18] [%] | residual activity [19] [%] | residual activity [20] [%] | also measured
1 | COc1cc2c(Oc3ccc(-c4nc5ccccc5s4)cc3)ncnc2cc1OCCCN1CCN(C)CC1 | 88 | 123 | 50 | 88 | 103 | 115 | 97 | 79 | 74 | 272 | 92 | 96 | 97 | 82 | 147 | 64 | 82 | 109 | 85 | 112 | residual activity [21]: 115%
2 | COc1cc2c(Oc3ccc(-c4nc5ccccc5s4)cc3)ncnc2cc1OCCCN1CCCC1 | 96 | 126 | 57 | 81 | 100 | 128 | 90 | 99 | 81 | 305 | 87 | 96 | 90 | 100 | 350 | 76 | 97 | 98 | 93 | 94 | residual activity [21]: 96%
3 | COc1cc2c(Oc3ccc(-c4nc5ccccc5s4)cc3F)ncnc2cc1OCCCN1CCN(C)CC1 | 41 | 115 | 38 | 86 | 99 | 100 | 113 | 88 | 87 | 264 | 105 | 97 | 104 | 64 | 420 | 69 | 76 | 109 | 95 | 47 | residual activity [21]: 94%
